Here are results for 33 compounds from patent US20040209914A1, “Aromatic sulfone hydroxamic acids and their use as protease inhibitors” (priority 2000, published 2004).

Each structure is given as a SMILES string. pIC50: −log10 of the molar value.

Common to all, as to test: biochemical
One experiment has as its target T1, Recombinant human MMP-1 (Homo sapiens, UniProt P03956).
T1 construct: made in house; host or cells: transfected HT-1080 cells
T1 sequence (P03956 100-469): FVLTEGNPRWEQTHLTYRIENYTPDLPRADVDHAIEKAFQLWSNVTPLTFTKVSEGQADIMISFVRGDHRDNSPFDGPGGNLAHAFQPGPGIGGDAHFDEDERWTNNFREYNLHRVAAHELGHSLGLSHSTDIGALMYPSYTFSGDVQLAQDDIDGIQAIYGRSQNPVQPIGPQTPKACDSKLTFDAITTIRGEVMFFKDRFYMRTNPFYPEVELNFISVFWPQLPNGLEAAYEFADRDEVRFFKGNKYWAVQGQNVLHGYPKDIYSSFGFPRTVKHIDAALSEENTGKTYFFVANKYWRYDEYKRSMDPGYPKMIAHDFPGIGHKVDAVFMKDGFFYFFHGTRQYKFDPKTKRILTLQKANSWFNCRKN
Particulars: fluorogenic MCA-peptide substrate, pH 7.5, room temperature. On the procedure:
(§1) Recombinant human MMP-1, MMP-2, MMP-9, MMP-13, and were used in this assay. These enzymes were prepared in the Assignee's es following usual laboratory procedures. Specifics for preparing and e enzymes can be found in the scientific literature describing these See, e.g., Enzyme Nomenclature (Academic Press, San Diego, Calif., d the citations therein).
The MMP-1 was obtained from MMP-1 expressing transfected HT-1080 cells provided by Dr. Harold Welgus of Washington University in St. Louis, Mo. The MMP-1 was activated using 4-aminophenylmercuric acetate (APMA), and then purified over a hydroxamic acid column.
(§2) The enzyme substrate was a methoxycoumarin-containing polypeptide having the following sequence:
(§3) MCA-ProLeuGlyLeuDpaAlaArgNH2
(§4) Here, “MCA” is methoxycoumarin and “Dpa” is 3-(2,4-dinitrophenyl)-L-2,3-diaminopropionyl alanine.
(§5) These solutions were then compared to a control (which contained equal amount of DMSO/buffer solution, but no hydroxamate compound) using Microfluor™ White Plates (Dynatech, Chantilly, Va.). Specifically, The MMPs were activated with APMA or trypsin. […] The control likewise was incubated at room temperature in separate plates with the MMP and 4 uM of the MMP substrate. […] Inhibition was measured as a reduction in fluorescent intensity as a function of inhibitor concentration using a Perkin Elmer (Norwalk, Conn.) L550 plate reader. The IC50's were then calculated from these measurements.

Another experiment has as its target T2, Recombinant human MMP-2 (Homo sapiens, UniProt P08253).
T2 construct: made in house
T2 sequence (P08253 110-660): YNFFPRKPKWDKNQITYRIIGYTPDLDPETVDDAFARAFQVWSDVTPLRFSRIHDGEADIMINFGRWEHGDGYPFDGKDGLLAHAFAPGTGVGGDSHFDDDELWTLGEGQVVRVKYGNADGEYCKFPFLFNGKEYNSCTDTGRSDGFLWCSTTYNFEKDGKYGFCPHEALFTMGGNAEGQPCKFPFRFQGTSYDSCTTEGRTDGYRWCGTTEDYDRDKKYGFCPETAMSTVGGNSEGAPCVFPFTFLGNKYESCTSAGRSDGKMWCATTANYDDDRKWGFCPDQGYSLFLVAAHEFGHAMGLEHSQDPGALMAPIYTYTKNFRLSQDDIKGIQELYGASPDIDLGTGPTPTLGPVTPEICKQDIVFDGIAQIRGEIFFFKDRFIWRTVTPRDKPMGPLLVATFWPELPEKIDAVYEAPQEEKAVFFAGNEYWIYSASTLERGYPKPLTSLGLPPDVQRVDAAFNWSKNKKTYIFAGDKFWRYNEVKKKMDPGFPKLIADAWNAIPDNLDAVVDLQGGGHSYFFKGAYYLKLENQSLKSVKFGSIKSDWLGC
Particulars: fluorogenic MCA-peptide substrate, pH 7.5, room temperature; read-out: MMP-2 IC50. As to the method: as §1
The MMP-2 was obtained from MMP-2 expressing transfected cells provided by Dr. Gregory Goldberg of Washington University.
as §2, §3, §4, §5

The target of the next experiment is T3, Recombinant human MMP-13 (Homo sapiens, UniProt P45452).
T3 construct: made in house; host or cells: baculovirus / insect cells
Particulars: fluorogenic MCA-peptide substrate, pH 7.5, room temperature; read-out: MMP-13 IC50. On the procedure: as §1
The expressed proenzyme was first purified over a heparin agarose column, and then over a chelating zinc chloride column. The proenzyme was then activated by APMA for use in the assay.
as §2, §3, §4, §5

For orientation: pIC50 means the IC50 on a negative log10 scale, so that one unit is a factor of ten. As for `COCCN1CCC(C(=O)NO)(S(=O)(=O)c2ccc(N3CCC(C(=O)c4ccc(CC5CCCCC5)cc4)CC3)cc2)CC1` [Example 203], the pIC50 is 5.63 at Recombinant human MMP-1, 6.09 at Recombinant human MMP-2 and 9.22 at Recombinant human MMP-13.
The corresponding values for `COCCN1CCC(C(=O)NO)(S(=O)(=O)c2ccc(N3CCC(c4ccc(Cl)cc4)CC3)cc2)CC1` [Example 271] are less than 5.00, 8.77 and 9.10.
For `Cc1cc(C(=O)C2CCN(c3ccc(S(=O)(=O)C4(C(=O)NO)CCN(C5CC5)CC4)cc3)CC2)ccc1Cl` [Example 214] the same measures were less than 5.00, 6.80 and 8.77.
The corresponding values for `O=C(c1ccc(Cl)cc1)C1CCN(c2ccc(S(=O)(=O)C3(C(=O)NO)CCN(C4CC4)CC3)cc2)CC1` [Example 213] are less than 5.00, 7.59 and 9.30.
As to `CC(C)COc1ccc(C(=O)C2CCN(c3ccc(S(=O)(=O)C4(C(=O)NO)CCN(C5CC5)CC4)cc3)CC2)cc1` [Example 216], the negative-log IC50 (pIC50) at Recombinant human MMP-1 was less than 5.00; on Recombinant human MMP-2, 7.33; on Recombinant human MMP-13, 8.82.
The corresponding values for `COCCN1CCC(C(=O)NO)(S(=O)(=O)c2ccc(N3CCC(c4ccc(OC)cc4)CC3)cc2)CC1` [Example 267] are less than 5.00, 8.77 and 9.40.
For `CCN1CCC(C(=O)NO)(S(=O)(=O)c2ccc(N3CCC(C(=O)c4ccc(CC5CCC5)cc4)CC3)cc2)CC1` [Example 232] the same measures were less than 5.00, 6.20 and 8.89.
For `COc1ccc(C2CCN(c3ccc(S(=O)(=O)C4(C(=O)NO)CCN(CC5CC5)CC4)cc3)CC2)cc1` [Example 268], the pIC50 on Recombinant human MMP-1 is less than 5.00; at Recombinant human MMP-2 it was 8.30; at Recombinant human MMP-13, 8.92.
Regarding `Cc1ccc(N2CCN(C(=O)C3CCN(c4ccc(S(=O)(=O)C5(C(=O)NO)CCOCC5)cc4)CC3)CC2)c(C)c1` [Example 9], the pIC50 was less than 5.00 on Recombinant human MMP-1, 5.25 on Recombinant human MMP-2 and 7.91 at Recombinant human MMP-13.
Take `COc1ccc(C(=O)C2CCN(c3ccc(S(=O)(=O)C4(C(=O)NO)CCN(S(C)(=O)=O)CC4)cc3)CC2)cc1` [Example 206]: the negative-log IC50 (pIC50) at Recombinant human MMP-1 was less than 5.00; at Recombinant human MMP-2 it was 6.70; at Recombinant human MMP-13, 8.74.
For `C=CCN1CCC(C(=O)NO)(S(=O)(=O)c2ccc(N3CCC(C(=O)c4ccc5ccccc5c4)CC3)cc2)CC1` [Example 160] the same measures were less than 5.00, 6.70 and 9.40.
With `COCCN1CCN(C(=O)C2CCN(c3ccc(S(=O)(=O)C4(C(=O)NO)CCOCC4)cc3)CC2)CC1` [Example 18], the pIC50 on Recombinant human MMP-1, on Recombinant human MMP-2 and at Recombinant human MMP-13 was less than 5.00 each time.
`CCC(CC)Cc1ccc(C(=O)C2CCN(c3ccc(S(=O)(=O)C4(C(=O)NO)CCN(CC)CC4)cc3)CC2)cc1` [Example 234]: the pIC50 on Recombinant human MMP-1 was less than 5.00; on Recombinant human MMP-2, 5.61; at Recombinant human MMP-13 it was 8.12.
The corresponding values for `O=C(c1ccc(Cl)cc1)C1CCN(c2ccc(S(=O)(=O)C3(C(=O)NO)CCN(CC4CC4)CC3)cc2)CC1` [Example 123] are less than 5.00, 7.33 and 10.00.
The corresponding values for `COCCN1CCC(C(=O)NO)(S(=O)(=O)c2ccc(N3CCC(C(=O)c4ccc(OC5CCCC5)cc4)CC3)cc2)CC1` [Example 227] are less than 5.00, 6.88 and 8.85.
`O=C(c1ccc(Br)cc1)C1CCN(c2ccc(S(=O)(=O)C3(C(=O)NO)CCN(C4CC4)CC3)cc2)CC1` [Example 190]: the pIC50 at Recombinant human MMP-1 was less than 5.00; at Recombinant human MMP-2 it was 7.64; at Recombinant human MMP-13 it was 9.70.
For `C#CCN1CCC(C(=O)NO)(S(=O)(=O)c2ccc(N3CCC(C(=O)c4cccc(C)c4)CC3)cc2)CC1` [Example 154] the same measures were less than 5.00, 6.75 and 8.62.
Take `CCC(C)Cc1ccc(C(=O)C2CCN(c3ccc(S(=O)(=O)C4(C(=O)NO)CCN(CC)CC4)cc3)CC2)cc1` (centres unmarked) [Example 233]: the negative-log IC50 (pIC50) on Recombinant human MMP-1 is less than 5.00; on Recombinant human MMP-2, 5.98; at Recombinant human MMP-13, 8.92.
Consider `COCCN1CCC(C(=O)NO)(S(=O)(=O)c2ccc(N3CCC(c4ccc(C)cc4)CC3)cc2)CC1` [Example 269], for which the figures for the pIC50 at Recombinant human MMP-1 and at Recombinant human MMP-13 were less than 5.00 and 8.85, respectively.
Consider `O=C(Cc1ccccc1)C1CCN(c2ccc(S(=O)(=O)C3(C(=O)NO)CCOCC3)cc2)CC1` [Example 386], for which the negative-log IC50 (pIC50) on Recombinant human MMP-2 was 5.72; at Recombinant human MMP-13 it was 7.82.
In the case of `O=C(C1CCN(c2ccc(S(=O)(=O)C3(C(=O)NO)CCOCC3)cc2)CC1)N1CCN(c2ccc(C(F)(F)F)cc2)CC1` [Example 33], on Recombinant human MMP-1, the pIC50 is 7.17.
Consider `COc1ccc(C(=O)C2CCN(c3ccc(S(=O)(=O)C4(C(=O)NO)CCN(C(=O)c5ccco5)CC4)cc3)CC2)cc1` [Example 139], for which the values for the negative-log IC50 (pIC50) at Recombinant human MMP-2 and on Recombinant human MMP-13 were 6.48 and 8.74, respectively.
For `O=C(NO)C1(S(=O)(=O)c2ccc(N3CCC(c4ccc(F)cc4)CC3)cc2)CCN(C2CC2)CC1` [Example 259] the same measures were 9.22 and 9.40.
The corresponding values for `COc1ccc(C(=O)C2CCN(c3ccc(S(=O)(=O)C4(C(=O)NO)CCNCC4)cc3)CC2)cc1` [Example 140] are 6.10 and 7.74.
For `O=C(NO)C1(S(=O)(=O)c2ccc(N3CCC(SCc4ccccc4Cl)CC3)cc2)CCN(C2CC2)CC1` [Example 147] the same measures were 6.84 and 7.70.
In the case of `O=C(c1ccc(CC2CCCCC2)cc1)C1CCN(c2ccc(S(=O)(=O)C3(C(=O)NO)CCN(C4CC4)CC3)cc2)CC1` [Example 198], the pIC50 is 5.59 at Recombinant human MMP-2 and 7.92 at Recombinant human MMP-13.
With `COCCN1CCC(C(=O)NO)(S(=O)(=O)c2ccc(N3CCC(C(=O)c4ccc(COCC5CC5)cc4)CC3)cc2)CC1` [Example 239], the pIC50 on Recombinant human MMP-2 is 7.12; on Recombinant human MMP-13, 9.22.
Turning to `C[C@@H]1CN(C(=O)C2CCN(c3ccc(S(=O)(=O)C4(C(=O)NO)CCOCC4)cc3)CC2)C[C@H](C)O1` [Example 30], the pIC50 at Recombinant human MMP-2 was less than 5.00; at Recombinant human MMP-13, 7.74.
On to `CS(=O)(=O)N1CCC(C(=O)NO)(S(=O)(=O)c2ccc(N3CCC(C(=O)c4ccc5ccccc5c4)CC3)cc2)CC1` [Example 166], for which the results for the negative logarithm of the IC50 (pIC50) at Recombinant human MMP-2 and on Recombinant human MMP-13 were less than 5.00 and 6.36, respectively.
For `COCCN1CCC(C(=O)NO)(S(=O)(=O)c2ccc(N3CCC(C(=O)c4cccc(C)c4)CC3)c(Cl)c2)CC1` [Example 277] the same measures were less than 5.00 and 6.56.
`O=C(NO)C1(S(=O)(=O)c2ccc(N3CCC(c4ccc(Cl)cc4)CC3)cc2)CCN(CC2CC2)CC1` [Example 274]: the pIC50 on Recombinant human MMP-1 is less than 5.00; on Recombinant human MMP-13 it was 8.68.
Consider `C=CCN1CCC(C(=O)NO)(S(=O)(=O)c2ccc(N3CCC(C(=O)c4ccc(NC)cc4)CC3)cc2)CC1` [Example 161], for which the figures for the negative-log IC50 (pIC50) on Recombinant human MMP-2 and at Recombinant human MMP-13 were 6.63 and 9.52, respectively.
The corresponding values for `COCCN1CCC(C(=O)NO)(S(=O)(=O)c2ccc(N3CCC(Sc4nccs4)CC3)cc2)CC1` [Example 256] are 7.45 and 8.12.
